Assay results as given in US20060293351A1, “Promotion of wound healing” (priority 1999, published 2006).
Where two headings read alike, the source gives them in different places.

Legend:
[1] = test system: fibroblasts derived from rat urethra; experiment: cells; format: cell-based
Protocol: Urethral fibroblasts were obtained from three normal male rats, and were processed under sterile conditions. The urethra was cut into 1-2 mm pieces and rinsed several times in a solution containing 0.2 ml/10 ml penicillin/streptomycin and 50 micrograms/ml gentamycin. Each piece of urethra was placed in a 1 ml well of a 24 well plate (Greiner Labortchnik, Germany). Each well was filled with DMEM (Dulbecco's Modified Eagle's Medium), containing […] of D-glucose. 25% FCS (fetal calf serum), 0.1 ml/10 ml penicillin/streptomycin, 0.1 ml/10 ml glutamine. 50 micrograms/ml gentamycin and 2.5 micrograms/ml amphotericin B. The wells were incubated in an incubator containing 5% CO2 at 37° C. Half of the medium was replaced after 10 days. Two to three days later the cultures were trypsinized with trypsin-EDTA medium. The content of each pair of wells was combined, resuspended in DMEM and placed into one 250-ml flask containing 5 ml of medium. When the cell cultures reached confluency, they were transferred to new flasks with a 1:5 ratio of old to new medium. The concentration of FCS was then decreased to 10%.
For the evaluation of the synthesis of CDP and NCDP, cells were incubated for 24 hours with various concentrations of Halofuginone in 0.5 m glutamine-free DMEM containing 5% FCS, ascorbic acid (50 micrograms/ml), β-aminopropionitrile (50 micrograms/ml) and 2 micro-curies of [^3H]proline. At the end of the incubation period, the medium was decanted and incubated with or without collagenase for 18 hours, followed by TCA precipitation. The amount of radiolabeled collagen was estimated as the difference between total [^3H]proline containing proteins and protein remaining after collagenase digestion.

urethral strictures = format: in vivo, rats
Source text: Tile effect of Halofuginone in post-trauma stricture formation in rats was studied. Briefly, urethral strictures were induced by catheterization and application of an electrical current to the urethra of rats. The rats were divided into four groups: untreated rats as controls (FIG. 5A); rats treated with Halofuginone but not with coagulation current (FIG. 5B); rats treated with coagulation current alone (FIG. 5C); and rats treated with both Halofuginone and coagulation current (FIG. 5D-5F).
The experiments were performed as follows. First, urethral catherization was performed on anesthetized rats with a 23 G Quik-Cath (Baxter, Ireland) sheath. A spinal needle was inserted into the sheath, and was used to apply a coagulation current at a level of 10 W to the outer end of the needle for 1 second at three locations, 8, 10 and 12 mm from the meatus, in order to produce urethral strictures. Halofuginone was given for 7 days starting at the day of stricture formation, either orally at concentrations of 1 ppm and 5 ppm in the diet, or by injection of 0.03% Halofuginone dissolved in 2% lignocaine directly into the urethra once a day. Urethral gross morphology was evaluated by urethrogram after injecting contrast material (Telebrix Megalumine 300 mg/ml. Laboratorie, Guerbet, Aulnay Sous Bios, France) into the anesthetized rat through a 23 G Quik-Cath sheath, under fluoroscopy 3 weeks after stricture formation.

[2] = test system: full depth incision in the skin; experiment: Wound healing in irradiated and wounded mice (histology, collagen type I immunohistochemistry); format: in vivo; conditions: 1 mg per mouse i.p. every other day, 14 days
Protocol: The effect of Halofuginone on wound healing was examined by using mice which were first irradiated and then wounded.
The experiment was conducted as follows. First, C3H, defined-flora, pathogen-free female mice of 12-14 weeks of age were anesthetized with 60 mg/kg sodium […]. The mice were then shaved. One group of mice was then irradiated as follows. First, a flap of skin about 40 mm long and about 20 mm wide was pulled through a slit in the lead cover of an irradiation jig and secured with tape, so that only the flap of skin was exposed. This exposed skin as then irradiated by using a 175 kVp/20 mA orthovoltage X-ray source, with a 2 mm Cu filter at a dose rate of 1.0 Gy/min. A standard dose of 18 Gy was delivered.
All of the mice were then wounded by making a full depth incision, about 25 mm long, in the skin along the midline of the lower back. Note that for the irradiated animals, the wound was made within the irradiated area, immediately following irradiation. For all mice, the incision was immediately closed by 3-4 metallic wound closure clips which were removed 2 days later.
After wounding, the mice were injected i.p. every other day, either with 1 mg per mouse of Halofuginone or with saline as a control. […]

collagen type III = experiment: Collagen type III immunohistochemistry at the stricture site; format: in vivo, rats; conditions: diet containing Halofuginone after coagulation current treatment
Protocol: Immunohistochemistry with antibodies to collagen type III was performed on biopsies taken from control, untreated rats, rats treated with coagulation current alone and rats fed a diet containing Halofuginone after coagulation current treatment. […] The experimental method was as follows. Rats were treated and sections of biopsy tissue were prepared as described previously in Example 4. Immunohistochemistry was performed with primary antibodies against collagen type III (BioGenex. San Ramon, Calif., USA) and a Histomouse SP kit (Zymed Laboratories Inc., South San Francisco, Calif., USA) for the secondary antibodies. The primary antibodies were used in a 1:1000 dilution and detection was performed with the Histomouse SP kit according to the instructions of the manufacturer.

chickens = conditions: in vivo; cited from earlier work

For O=C(CC1NCCC[C@H]1O)Cn1cnc2cc(Br)c(Cl)cc2c1=O (some centres unmarked) [Halofuginone], the number of cells [1] was “did not affect”, the “appearance of non-collagenase digestible proteins (NCDP)” value ([1]; 24 hours incubation) was “did not affect” and the inhibition at 0.01 µM ([1]; Rattus norvegicus, Fibroblast, 10^−8 M Halofuginone, 24 hours, read-out: inhibition of the levels of collagenase-digestible proteins (CDP)) was 40%. The stricture formation (urethral strictures; 1 ppm in the diet for 7 days with coagulation treatment) was “did not affect stricture formation”, the stricture formation (urethral strictures; 5 ppm in the diet for 7 days with coagulation treatment) was “did not have strictures” and the stricture formation (urethral strictures; locally administered (0.03% in 2% lignocaine into the urethra once a day, 7 days) with coagulation treatment) was “did not have strictures”. For the same molecule, the stricture formation (urethral strictures; rat, in vivo) was “did not have any strictures”, the “collagen content in the wound” value ([2]; irradiated mouse (18 Gy)) was “significantly lowered” and the “healing of the wound” value ([2]; wounded and irradiated skin) was “the wound still healed”. The “levels of collagen type III” value (collagen type III) was “No significant changes” and the skin tearing (chickens) was “increased skin tearing”.
